PubChem BioAssay (NCI)
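48-hour exposure; five concentrations; linearly interpolated endpoints. TGI: total growth inhibition.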

Legend:
Assay in all cases: growth of human tumour cells (NCI), 48 h
HL-60(TB) leukemia = tested on: HL-60(TB) leukemia
A498 renal = tested on: A498 renal
XF 498 CNS = tested on: XF 498 CNS
SF-295 CNS = tested on: SF-295 CNS
SF-539 CNS = tested on: SF-539 CNS
CCRF-CEM leukemia = tested on: CCRF-CEM leukemia
KM20L2 colon = tested on: KM20L2 colon
COLO 205 colon = tested on: COLO 205 colon
SF-268 CNS = tested on: SF-268 CNS
SK-MEL-5 melanoma = tested on: SK-MEL-5 melanoma
M14 melanoma = tested on: M14 melanoma
OVCAR-5 ovarian = tested on: OVCAR-5 ovarian
SNB-19 CNS = tested on: SNB-19 CNS
MOLT-4 leukemia = tested on: MOLT-4 leukemia
HOP-62 NSCLC = tested on: HOP-62 NSCLC
NCI-H522 lung = tested on: NCI-H522 lung
OVCAR-4 ovarian = tested on: OVCAR-4 ovarian
ACHN renal = tested on: ACHN renal
OVCAR-8 ovarian = tested on: OVCAR-8 ovarian
SR leukemia = tested on: SR leukemia
A549 NSCLC = tested on: A549 NSCLC
RXF 393 renal = tested on: RXF 393 renal
NCI-H23 lung = tested on: NCI-H23 lung
SN12C renal = tested on: SN12C renal
SNB-75 CNS = tested on: SNB-75 CNS
K-562 leukemia = tested on: K-562 leukemia
CAKI-1 renal = tested on: CAKI-1 renal
EKVX NSCLC = tested on: EKVX NSCLC
DLD-1 colon = tested on: DLD-1 colon
HOP-92 NSCLC = tested on: HOP-92 NSCLC
M19-MEL melanoma = tested on: M19-MEL melanoma
RPMI-8226 leukemia = tested on: RPMI-8226 leukemia
MALME-3M melanoma = tested on: MALME-3M melanoma
HOP-18 NSCLC = tested on: HOP-18 NSCLC
IGROV1 ovarian = tested on: IGROV1 ovarian
KM12 colon = tested on: KM12 colon
786-0 renal = tested on: 786-0 renal
HCT-116 colon = tested on: HCT-116 colon
DMS 114 small cell lung = tested on: DMS 114 small cell lung
LXFL 529 NSCLC = tested on: LXFL 529 NSCLC
HCT-15 colon = tested on: HCT-15 colon
UACC-62 melanoma = tested on: UACC-62 melanoma
SW-620 colon = tested on: SW-620 colon
UO-31 renal = tested on: UO-31 renal
HT29 colon = tested on: HT29 colon
NCI-H460 lung = tested on: NCI-H460 lung
U251 CNS = tested on: U251 CNS
HCC-2998 colon = tested on: HCC-2998 colon
SK-MEL-2 melanoma = tested on: SK-MEL-2 melanoma
SNB-78 CNS = tested on: SNB-78 CNS
RXF-631 renal = tested on: RXF-631 renal
SK-OV-3 ovarian = tested on: SK-OV-3 ovarian
SK-MEL-28 melanoma = tested on: SK-MEL-28 melanoma
UACC-257 melanoma = tested on: UACC-257 melanoma

## O=C(NOC(=O)c1ccc([N+](=O)[O-])cc1)c1ccc(Cl)cc1
HL-60(TB) leukemia
  TGI: 34.3 µM
A498 renal
  TGI: > 100 µM
XF 498 CNS
  TGI: > 100 µM
SF-295 CNS
  TGI: > 100 µM
SF-539 CNS
  TGI: > 100 µM
CCRF-CEM leukemia
  TGI: > 100 µM
KM20L2 colon
  TGI: > 100 µM
COLO 205 colon
  TGI: > 100 µM
SF-268 CNS
  TGI: > 100 µM
SK-MEL-5 melanoma
  TGI: > 100 µM
M14 melanoma
  TGI: > 100 µM
OVCAR-5 ovarian
  TGI: > 100 µM
SNB-19 CNS
  TGI: > 100 µM
MOLT-4 leukemia
  TGI: > 100 µM
HOP-62 NSCLC
  TGI: > 100 µM
NCI-H522 lung
  TGI: 82.2 µM
OVCAR-4 ovarian
  TGI: > 100 µM
ACHN renal
  TGI: > 100 µM
OVCAR-8 ovarian
  TGI: > 100 µM
SR leukemia
  TGI: > 100 µM
A549 NSCLC
  TGI: > 100 µM
RXF 393 renal
  TGI: > 100 µM
NCI-H23 lung
  TGI: > 100 µM
SN12C renal
  TGI: > 100 µM
SNB-75 CNS
  TGI: 54.6 µM
K-562 leukemia
  TGI: > 100 µM
CAKI-1 renal
  TGI: > 100 µM
EKVX NSCLC
  TGI: > 100 µM
DLD-1 colon
  TGI: > 100 µM
HOP-92 NSCLC
  TGI: > 100 µM
M19-MEL melanoma
  TGI: > 100 µM
RPMI-8226 leukemia
  TGI: > 100 µM
MALME-3M melanoma
  TGI: > 100 µM
HOP-18 NSCLC
  TGI: 89.7 µM
IGROV1 ovarian
  TGI: 59.4 µM
KM12 colon
  TGI: > 100 µM
786-0 renal
  TGI: > 100 µM
HCT-116 colon
  TGI: > 100 µM
DMS 114 small cell lung
  TGI: > 100 µM
LXFL 529 NSCLC
  TGI: > 100 µM
HCT-15 colon
  TGI: > 100 µM
UACC-62 melanoma
  TGI: > 100 µM
SW-620 colon
  TGI: > 100 µM
UO-31 renal
  TGI: > 100 µM
HT29 colon
  TGI: > 100 µM
NCI-H460 lung
  TGI: > 100 µM
U251 CNS
  TGI: > 100 µM
HCC-2998 colon
  TGI: > 100 µM
SK-MEL-2 melanoma
  TGI: > 100 µM
SNB-78 CNS
  TGI: 65.3 µM
RXF-631 renal
  TGI: > 100 µM
SK-OV-3 ovarian
  TGI: > 100 µM
SK-MEL-28 melanoma
  TGI: > 100 µM
UACC-257 melanoma
  TGI: > 100 µM
